19 molecules from US9643967B2, “Pyrrolo[3,2-c]pyridine derivatives as TLR inhibitors” (TAKEDA PHARMACEUTICAL COMPANY LIMITED, priority 2013, dated 2017) can be followed below.

Read-outs that look alike come from different tables or passages of the source.

For the assay, the target named is T1, mTLR9 (Mus musculus, UniProt Q9EQU3).
T1 construct: Splenocytes isolated from male C57/BL6 mice; from tissue; host or cells: splenocytes from the spleen of male C57BL/6 mice
T1 sequence (Q9EQU3 26-1032): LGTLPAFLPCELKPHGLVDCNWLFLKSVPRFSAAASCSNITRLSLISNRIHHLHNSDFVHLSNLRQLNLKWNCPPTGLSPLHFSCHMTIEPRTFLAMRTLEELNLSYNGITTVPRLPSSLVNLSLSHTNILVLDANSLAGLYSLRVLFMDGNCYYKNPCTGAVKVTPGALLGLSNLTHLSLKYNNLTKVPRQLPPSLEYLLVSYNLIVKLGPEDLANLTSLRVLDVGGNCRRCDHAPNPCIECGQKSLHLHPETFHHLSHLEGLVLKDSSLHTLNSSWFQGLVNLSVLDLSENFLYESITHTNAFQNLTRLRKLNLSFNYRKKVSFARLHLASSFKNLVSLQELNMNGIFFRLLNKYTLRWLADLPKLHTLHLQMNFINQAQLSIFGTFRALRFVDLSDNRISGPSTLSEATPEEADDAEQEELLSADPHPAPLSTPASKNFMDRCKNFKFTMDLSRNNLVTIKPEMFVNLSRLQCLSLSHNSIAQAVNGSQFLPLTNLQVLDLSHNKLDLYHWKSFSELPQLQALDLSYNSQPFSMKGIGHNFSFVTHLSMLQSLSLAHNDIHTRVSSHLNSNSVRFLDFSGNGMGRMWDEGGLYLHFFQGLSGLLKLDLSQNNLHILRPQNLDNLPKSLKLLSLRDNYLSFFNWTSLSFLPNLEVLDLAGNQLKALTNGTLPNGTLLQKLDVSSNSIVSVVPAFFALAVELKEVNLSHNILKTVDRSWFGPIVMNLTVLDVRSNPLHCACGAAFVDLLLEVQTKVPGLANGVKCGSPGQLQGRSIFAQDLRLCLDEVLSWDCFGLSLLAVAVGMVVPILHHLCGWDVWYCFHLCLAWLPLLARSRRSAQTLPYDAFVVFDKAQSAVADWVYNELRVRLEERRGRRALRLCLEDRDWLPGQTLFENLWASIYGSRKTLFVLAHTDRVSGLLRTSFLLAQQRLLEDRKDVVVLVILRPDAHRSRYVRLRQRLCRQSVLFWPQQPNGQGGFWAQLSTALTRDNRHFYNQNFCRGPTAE
Put plainly: mTLR9 antagonism (IL-6 and TNF-α release assay) in mouse splenocytes, CpG ODN-2006 stimulated. It counts as cell-based. The note with it: 1 μM, mouse splenocytes. The text has this:
mTLR9 and mTLR7 Antagonism (Cytokine Release Assay) in Mouse Splenocytes
TLR7 ligand R0006 (IDT, 5′-rU*rU*rG*rU*rU*rG*rU*rU*rG*rU*rU*rG*rU*rU*rG*rU*rU*rG*rU*rU-3′ (SEQ ID NO:1)), Liposomal transfection reagent—DOTAP (Roche, Cat. No. 11202375001), TLR9 ligand CpG ODN2006 (Sequence: T*C*G*T*C*G*T*T*T*T*G*T*C*G*T*T*T*T*G*T*C*G*T*T; *=phosphorothioate (SEQ ID NO:2)) DMSO (Sigma, D2650), RPMI Powder (Sigma, R6504), Fetal Bovine Serum (Gibco, 10270), Dulbecco's Phosphate Buffered Saline (Sigma, D1408), 96 well plate (Flat bottom, Costar 3599), ELISA kit for IL-6 (EBioscience, 88-7064-77 and TNFa (EBioscience, 88-7346-88), MACS Buffer (AutoMACS Rinsing Solution (Miltenyl Biotec, 130-091-222)+0.05% BSA), RBC lysis buffer (0.85% NH4Cl), 40 μm cell strainer (BD Falcon, 352340) Method: A. Isolation of Mouse Splenocytes
Mouse spleen was isolated from C57BL6 mouse and stored in 1× chilled PBS buffer until further processed. Spleen was transferred to a sterile petriplate and chopped in to 5-6 pieces in presence of MACS buffer (100 μl) with the help of fresh surgical blade and crushed with flat plunger of a sterile syringe. A uniform suspension was prepared by passing cells through a 40 μm cell strainer. Cells were centrifuged at 450×g for 5 minutes at 4° C., supernatant was discarded and pellet dislodged gently, resuspended in 2 ml of pre-warmed (37° C.) RBC lysis buffer at room temperature with continuous gentle mixing with 1 ml pipette. Lysis buffer was neutralized with 12 ml of chilled MACS buffer and cells were passed through 40 μm cell strainer. Cell suspension was collected in 15 ml MACS buffer and centrifuged at 450×g for 5 minutes at 4° C. Pellet was resuspended in 15 ml MACS buffer and centrifuged at 400×g for 5 minutes. Cells were resuspended in 10 ml of RPMI complete medium and viability was estimated by Trypan blue method.
mTLR9 Antagonism (IL-6 and TNF-α Release Assay):
500 μM stock of CpG ODN-2006 was prepared in sterile, endotoxin-free water. Dilutions of 10× concentrations of NCEs were prepared in incomplete RPMI media, maintaining a final DMSO concentration of 0.3%. NCEs were added in a concentration range of 30 μM to 1 nM in respective wells of assay plate, assay medium containing 0.3% DMSO were added to control wells. 0.2 million splenocytes were added to all the wells and incubated at 37° C. in 5% CO2 incubator for 30 minutes. 1 μg/ml of respective agonist was added to all the wells except those were assigned as negative controls and mixed thoroughly. Incomplete RPMI was added to negative control wells and incubated overnight at 37° C./5% CO2. The plate was centrifuged at 450×g for 5 minutes at room temperature and the supernatant was collected. ELISA was performed as per manufacturer's protocol. S/B Ratio, % Activity and % Inhibition was calculated using MS Excel. IC50 and inhibition curve was generated using Graph Pad Prism.

[1] abbreviates: IL-6 release, read-out: mTLR9 inhibitory activity (% at 1 μM), IL-6.
Setting [2] is: TNF-α release, read-out: mTLR9 inhibitory activity (% at 1 μM), TNF-α.

Consider `Cc1cc2[nH]c(CN3CCOCC3)cc2c(-c2ccc(C3CCN(C(C)C)CC3)cc2)n1` [Example A51, 4-[[4-[4-(1-isopropyl-4-piperidyl)phenyl]-6-methyl-1H-pyrrolo[3,2-c]pyridin-2-yl]methyl]morpholine], for which the inhibition at 1 µM was 100% under setting [1] and 90% under setting [2].

Turning to `Cc1nc(-c2ccc(N3CCN(C(C)C)CC3)cc2)c2cc(CCN3CCOCC3)[nH]c2c1C` [Example B6, 4-[2-[4-[4-(4-isopropylpiperazin-1-yl)phenyl]-6,7-dimethyl-1H-pyrrolo[3,2-c]pyridin-2-yl]ethyl]morpholine], the inhibition at 1 µM under setting [1] amounted to 100% and the inhibition at 1 µM under setting [2] came out at 100%.

Consider `Cc1nc(-c2ccc(N3CCN(C(C)C)CC3)cc2)c2cc(CN3CCOCC3)[nH]c2c1C` [Example A36, 4-[[4-[4-(4-isopropylpiperazin-1-yl)phenyl]-6,7-dimethyl-1H-pyrrolo[3,2-c]pyridin-2-yl]methyl] morpholine], for which the inhibition at 1 µM under setting [2] turned out to be 100%.

Consider `Cc1cc2[nH]c(CCCN3CCCCC3)cc2c(-c2ccc(N3CCN(C(C)C)CC3)cc2)n1` [Example C5, 4-[4-(4-isopropylpiperazin-1-yl)phenyl]-6-methyl-2-[3-(1-piperidyl)propyl]-1H-pyrrolo[3,2-c]pyridine], for which the inhibition at 1 µM was 94% under setting [1] and 100% under setting [2].

Regarding `Cc1cc2[nH]c(CN3CCC4(CC3)CC(O)C4)cc2c(-c2ccc(N3CCN(C(C)C)CC3)cc2)n1` [Example A29, 7-[[4-[4-(4-isopropylpiperazin-1-yl)phenyl]-6-methyl-1H-pyrrolo[3,2-c]pyridin-2-yl]methyl]-7-azaspiro[3.5] nonan-2-ol], the inhibition at 1 µM is 96% under setting [1] and 64% under setting [2].

`Cc1cc2c(cc(CCN3CCOCC3)n2C)c(C2CCC(N3CCN(C(C)C)CC3)CC2)n1` (stereo not shown) [Example B27, 4-[2-[4-[4-(4-isopropylpiperazin-1-yl)cyclohexyl]-1,6-dimethyl-pyrrolo[3,2-c]pyridin-2-yl]ethyl]morpholine]: the inhibition at 1 µM was 100% under setting [1] and 72% under setting [2].

`CN1CCN(Cc2ccc(-c3nccc4[nH]c(CN5CCOCC5)cc34)cc2)CC1` [Example A60, 4-[[4-[4-[(4-methylpiperazin-1-yl)methyl]phenyl]-1H-pyrrolo[3,2-c]pyridin-2-yl]methyl]morpholine]: the inhibition at 1 µM was 0% under setting [1] and 38% under setting [2].

Turning to `CC(C)N1CCC(c2ccc(-c3nccc4[nH]c(CN5CCOCC5)cc34)cc2)CC1` [Example A70, 4-[[4-[4-(1-isopropyl-4-piperidyl)phenyl]-1H-pyrrolo[3,2-c]pyridin-2-yl]methyl]morpholine], the inhibition at 1 µM under setting [1] came to 95% and the inhibition at 1 µM under setting [2] was 52%.

On to `Cc1cc2c(cc(CCN3CCOCC3)n2C)c(-c2ccc(N3CCN(C(C)C)CC3)cc2F)n1` [Example B19, 4-[2-[4-[2-fluoro-4-(4-isopropylpiperazin-1-yl)phenyl]-1,6-dimethyl-pyrrolo[3,2-c]pyridin-2-yl]ethyl]morpholine], for which the inhibition at 1 µM under setting [1] is 100% and the inhibition at 1 µM under setting [2] worked out at 100%.

Regarding `CCN1CCN(c2ccc(-c3nccc4[nH]c(CN5CCOCC5)cc34)cc2)CC1` [Example A3, 4-[[4-[4-(4-ethylpiperazin-1-yl)phenyl]-1H-pyrrolo[3,2-c]pyridin-2-yl]methyl] morpholine], the inhibition at 1 µM stood at 100% under setting [1] and 85% under setting [2].

For the molecule `Cc1nc(-c2ccc(N3CCN(C(C)C)CC3)cc2)c2cc(CN3CCCC3)[nH]c2c1C` [Example A40, 4-[4-(4-isopropylpiperazin-1-yl)phenyl]-6,7-dimethyl 2-(pyrrolidin-1-ylmethyl)-1H-pyrrolo[3,2-c)pyridine], under setting [2], the inhibition at 1 µM amounted to 100%.

For `Cc1cc2c(cc(CN3CCOCC3)n2C)c(-c2ccc(N3CCN(C(C)C)CC3)cc2)n1` [Example A35, 4-[[4-[4-(4-isopropylpiperazin-1-yl]phenyl]-1,6-dimethyl-pyrrolo[3,2-c]pyridin-2-yl]methyl] morpholine], the inhibition at 1 µM came out at 100% under setting [1] and 90% under setting [2].

In the case of `CC(C)N1CCC(Oc2ccc(-c3nccc4[nH]c(CN5CCOCC5)cc34)cc2)CC1` [Example A56, 4-[[4-[4-[(1-isopropyl-4-piperidyl)oxy]phenyl]-1H-pyrrolo[3,2-c]pyridin-2-yl]methyl]morpholine], under setting [2], the inhibition at 1 µM came out at 71%.

As for `Cc1cc2[nH]c(CCN3CCOCC3)cc2c(-c2ccc(N3CCN(C(C)C)CC3)cc2)n1` [Example B3, 4-[2-[4-[4-(4-isopropylpiperazin-1-yl)phenyl]-6-methyl-1H-pyrrolo[3,2-c]pyridin-2-yl]ethyl]morpholine], the inhibition at 1 µM by setting is: under setting [1], 100%; under setting [2], 100%.

Consider `CC(C)N1CCC(n2cc(-c3nccc4[nH]c(CN5CCOCC5)cc34)cn2)CC1` [Example A54, 4-[[4-[1-(1-isopropyl-4-piperidyl)pyrazol-4-yl]-1H-pyrrolo[3,2-c]pyridin-2-yl]methyl]morpholine], for which the inhibition at 1 µM under setting [2] was determined as 0%.

With `CC(C)N1CCN(c2ccc(-c3nccc4[nH]c(CN5CCC6(CC5)CC(O)C6)cc34)cc2)CC1` [Example A13, 7-[[4-[4-(4-isopropylpiperazin-1-yl)phenyl]-1H-pyrrolo[3,2-c]pyridin-2-yl]methyl]-7-azaspiro[3.5] nonan-2-ol], the inhibition at 1 µM under setting [1] turned out to be 100% and the inhibition at 1 µM under setting [2] is 91%.

As for `CN1CCC(n2cc(-c3nccc4[nH]c(CN5CCOCC5)cc34)cn2)CC1` [Example A63, 4-[[4-[1-(1-methyl-4-piperidyl)pyrazol-4-yl]-1H-pyrrolo[3,2-c]pyridin-2-yl]methyl]morpholine], the inhibition at 1 µM under setting [2] amounted to 0%.

On to `CN1CCC(Oc2ccc(-c3nccc4[nH]c(CN5CCOCC5)cc34)cc2)CC1` [Example A62, 4-[[4-[4-[(1-methyl-4-piperidyl)oxy]phenyl]-1H-pyrrolo[3,2-c]pyridin-2-yl]methyl]morpholine], for which, under setting [2], the inhibition at 1 µM is 79%.

Take `CN1CCN(c2ccc(-c3nccc4c3cc(CN3CCOCC3)n4C)cc2)CC1` [Example A9, 4-[[1-methyl-4-[4-(4-methylpiperazin-1-yl)phenyl]pyrrolo[3,2-c]pyridin-2-yl]methyl] morpholine]: the inhibition at 1 µM under setting [2] was 94%.
